The source made the active and inactive calls. No rule for the calls is given here.
System: CCRIS mutagenicity, Ames/micronucleus/aberration tests
Assay: CCRIS mutagenicity studies
[1] = Test System: AMES SALMONELLA TYPHIMURIUM, Strain/Indicator: TA97, Metabolic Activation: NONE, Method: STANDARD PLATE
[2] = Test System: AMES SALMONELLA TYPHIMURIUM, Strain/Indicator: TA97, Metabolic Activation: RAT, LIVER, S-9, AROCLOR 1254, Method: STANDARD PLATE
[3] = Test System: AMES SALMONELLA TYPHIMURIUM, Strain/Indicator: TA98, Metabolic Activation: NONE, Method: STANDARD PLATE
[4] = Test System: AMES SALMONELLA TYPHIMURIUM, Strain/Indicator: TA98, Metabolic Activation: RAT, LIVER, S-9, AROCLOR 1254, Method: STANDARD PLATE
[5] = Test System: AMES SALMONELLA TYPHIMURIUM, Strain/Indicator: TA100, Metabolic Activation: NONE, Method: STANDARD PLATE
[6] = Test System: AMES SALMONELLA TYPHIMURIUM, Strain/Indicator: TA100, Metabolic Activation: RAT, LIVER, S-9, AROCLOR 1254, Method: STANDARD PLATE
[7] = Test System: AMES SALMONELLA TYPHIMURIUM, Strain/Indicator: TA104, Metabolic Activation: NONE, Method: STANDARD PLATE
[8] = Test System: AMES SALMONELLA TYPHIMURIUM, Strain/Indicator: TA104, Metabolic Activation: RAT, LIVER, S-9, AROCLOR 1254, Method: STANDARD PLATE
[9] = Test System: AMES SALMONELLA TYPHIMURIUM, Strain/Indicator: TA1535, Metabolic Activation: NONE, Method: STANDARD PLATE
[10] = Test System: AMES SALMONELLA TYPHIMURIUM, Strain/Indicator: TA1537, Metabolic Activation: NONE, Method: STANDARD PLATE

With `Cc1cc(Cl)ccc1O` as the compound, how does the mutagenic call (Test System: AMES SALMONELLA TYPHIMURIUM, Strain/Indicator: TA97, Metabolic Activation: HAMSTER, LIVER, S-9, AROCLOR 1254 (10%), Method: PREINCUBATION) read?
The mutagenic call was “inactive; negative”.

What about the mutagenic call (Test System: AMES SALMONELLA TYPHIMURIUM, Strain/Indicator: TA97, Metabolic Activation: HAMSTER, LIVER, S-9, AROCLOR 1254 (30%), Method: PREINCUBATION) of the same compound?
Its mutagenic call is “inactive; negative”.

And the mutagenic call (Test System: AMES SALMONELLA TYPHIMURIUM, Strain/Indicator: TA97, Metabolic Activation: NONE, Method: PREINCUBATION)?
Its mutagenic call is “inactive; negative”.

And the mutagenic call [1]?
The mutagenic call was “active; positive”.

What about the mutagenic call (Test System: AMES SALMONELLA TYPHIMURIUM, Strain/Indicator: TA97, Metabolic Activation: RAT, LIVER, S-9, AROCLOR 1254 (10%), Method: PREINCUBATION) of the same compound?
The mutagenic call was “inactive; negative”.

And the mutagenic call (Test System: AMES SALMONELLA TYPHIMURIUM, Strain/Indicator: TA97, Metabolic Activation: RAT, LIVER, S-9, AROCLOR 1254 (30%), Method: PREINCUBATION)?
Its mutagenic call is “inactive; negative”.

And the mutagenic call [2]?
Its mutagenic call is “active; positive”.

And the mutagenic call (Test System: AMES SALMONELLA TYPHIMURIUM, Strain/Indicator: TA98, Metabolic Activation: HAMSTER, LIVER, S-9, AROCLOR 1254 (10%), Method: PREINCUBATION)?
Its mutagenic call is “inactive; negative”.

And the mutagenic call (Test System: AMES SALMONELLA TYPHIMURIUM, Strain/Indicator: TA98, Metabolic Activation: HAMSTER, LIVER, S-9, AROCLOR 1254 (30%), Method: PREINCUBATION)?
Its mutagenic call is “inactive; negative”.

What about the mutagenic call (Test System: AMES SALMONELLA TYPHIMURIUM, Strain/Indicator: TA98, Metabolic Activation: NONE, Method: PREINCUBATION) of the same compound?
The mutagenic call was “inactive; negative”.

What about the mutagenic call [3] of the same compound?
The mutagenic call was “inactive; negative”.

What about the mutagenic call (Test System: AMES SALMONELLA TYPHIMURIUM, Strain/Indicator: TA98, Metabolic Activation: RAT, LIVER, S-9, AROCLOR 1254 (10%), Method: PREINCUBATION) of the same compound?
The mutagenic call was “inactive; negative”.

And the mutagenic call (Test System: AMES SALMONELLA TYPHIMURIUM, Strain/Indicator: TA98, Metabolic Activation: RAT, LIVER, S-9, AROCLOR 1254 (30%), Method: PREINCUBATION)?
Its mutagenic call is “inactive; negative”.

What about the mutagenic call [4] of the same compound?
Its mutagenic call is “active; positive”.

What about the mutagenic call (Test System: AMES SALMONELLA TYPHIMURIUM, Strain/Indicator: TA100, Metabolic Activation: HAMSTER, LIVER, S-9, AROCLOR 1254 (10%), Method: PREINCUBATION) of the same compound?
The mutagenic call was “inactive; negative”.

What about the mutagenic call (Test System: AMES SALMONELLA TYPHIMURIUM, Strain/Indicator: TA100, Metabolic Activation: HAMSTER, LIVER, S-9, AROCLOR 1254 (30%), Method: PREINCUBATION) of the same compound?
The mutagenic call was “inactive; negative”.

What about the mutagenic call (Test System: AMES SALMONELLA TYPHIMURIUM, Strain/Indicator: TA100, Metabolic Activation: NONE, Method: PREINCUBATION) of the same compound?
Its mutagenic call is “inactive; negative”.

And the mutagenic call [5]?
The mutagenic call was “inactive; negative”.

And the mutagenic call (Test System: AMES SALMONELLA TYPHIMURIUM, Strain/Indicator: TA100, Metabolic Activation: RAT, LIVER, S-9, AROCLOR 1254 (10%), Method: PREINCUBATION)?
The mutagenic call was “inactive; negative”.

And the mutagenic call (Test System: AMES SALMONELLA TYPHIMURIUM, Strain/Indicator: TA100, Metabolic Activation: RAT, LIVER, S-9, AROCLOR 1254 (30%), Method: PREINCUBATION)?
Its mutagenic call is “inactive; negative”.

What about the mutagenic call [6] of the same compound?
The mutagenic call was “active; positive”.

What about the mutagenic call [7] of the same compound?
The mutagenic call was “inactive; negative”.

And the mutagenic call [8]?
Its mutagenic call is “inactive; negative”.

And the mutagenic call (Test System: AMES SALMONELLA TYPHIMURIUM, Strain/Indicator: TA1535, Metabolic Activation: HAMSTER, LIVER, S-9, AROCLOR 1254 (10%), Method: PREINCUBATION)?
The mutagenic call was “inactive; negative”.

What about the mutagenic call (Test System: AMES SALMONELLA TYPHIMURIUM, Strain/Indicator: TA1535, Metabolic Activation: HAMSTER, LIVER, S-9, AROCLOR 1254 (30%), Method: PREINCUBATION) of the same compound?
The mutagenic call was “inactive; negative”.

And the mutagenic call (Test System: AMES SALMONELLA TYPHIMURIUM, Strain/Indicator: TA1535, Metabolic Activation: NONE, Method: PREINCUBATION)?
The mutagenic call was “inactive; negative”.

And the mutagenic call (Test System: AMES SALMONELLA TYPHIMURIUM, Strain/Indicator: TA1535, Metabolic Activation: RAT, LIVER, S-9, AROCLOR 1254 (10%), Method: PREINCUBATION)?
Its mutagenic call is “inactive; negative”.

And the mutagenic call (Test System: AMES SALMONELLA TYPHIMURIUM, Strain/Indicator: TA1535, Metabolic Activation: RAT, LIVER, S-9, AROCLOR 1254 (30%), Method: PREINCUBATION)?
The mutagenic call was “inactive; negative”.

And the mutagenic call (Test System: AMES SALMONELLA TYPHIMURIUM, Strain/Indicator: TA1537, Metabolic Activation: HAMSTER, LIVER, S-9, AROCLOR 1254 (30%), Method: PREINCUBATION)?
Its mutagenic call is “inactive; negative”.

And the mutagenic call (Test System: AMES SALMONELLA TYPHIMURIUM, Strain/Indicator: TA1537, Metabolic Activation: NONE, Method: PREINCUBATION)?
The mutagenic call was “inactive; negative”.

And the mutagenic call (Test System: AMES SALMONELLA TYPHIMURIUM, Strain/Indicator: TA1537, Metabolic Activation: RAT, LIVER, S-9, AROCLOR 1254 (30%), Method: PREINCUBATION)?
The mutagenic call was “inactive; negative”.

Which results are given for `CN(Cc1ccc(C#N)cc1)N=O`?
mutagenic call (Test System: AMES SALMONELLA TYPHIMURIUM, Strain/Indicator: TA1535, Metabolic Activation: HAMSTER, LIVER, S-9, AROCLOR 1254, Method: STANDARD PLATE): active; positive; mutagenic call [9]: inactive; negative

What does the source list for `C[C@H]1[C@H](C)CC[C@]2(C(=O)O[C@@H]3O[C@H](CO[C@@H]4O[C@H](CO)[C@@H](O[C@@H]5O[C@@H](C)[C@H](O)[C@@H](O)[C@H]5O)[C@H](O)[C@H]4O)[C@@H](O)[C@H](O)[C@H]3O)CC[C@]3(C)C(=CC[C@@H]4[C@@]5(C)C[C@@H](O)[C@H](O)[C@@](C)(CO)[C@@H]5CC[C@]43C)[C@H]12`?
mutagenic call (End Point: IN VITRO CHROMOSOMAL ABERRATIONS, Test System: CHL CELLS, Metabolic Activation: NONE): inactive; negative; mutagenic call (End Point: IN VITRO CHROMOSOMAL ABERRATIONS, Test System: CHL CELLS, Metabolic Activation: RAT, LIVER, S-9, AROCLOR 1254): inactive; negative; mutagenic call (End Point: IN VIVO MICRONUCLEUS, Test System: BONE MARROW, Species: MOUSE, Strain/Sex: ICR, Route: GAVAGE): inactive; negative; mutagenic call [3]: inactive; negative; mutagenic call [4]: inactive; negative; mutagenic call [5]: inactive; negative; mutagenic call [6]: inactive; negative; mutagenic call [9]: inactive; negative; mutagenic call (Test System: AMES SALMONELLA TYPHIMURIUM, Strain/Indicator: TA1535, Metabolic Activation: RAT, LIVER, S-9, AROCLOR 1254, Method: STANDARD PLATE): inactive; negative; mutagenic call [10]: inactive; negative; mutagenic call (Test System: AMES SALMONELLA TYPHIMURIUM, Strain/Indicator: TA1537, Metabolic Activation: RAT, LIVER, S-9, AROCLOR 1254, Method: STANDARD PLATE): inactive; negative; mutagenic call (Test System: E. COLI, Strain/Indicator: WP2UVRA, Metabolic Activation: RAT, LIVER, S-9, AROCLOR 1254, Method: STANDARD PLATE): inactive; negative; mutagenic call (Test System: E.COLI, Strain/Indicator: WP2UVRA, Metabolic Activation: NONE, Method: STANDARD PLATE): inactive; negative

How did the mutagenic call [1] turn out when `Cc1c(N=O)c(=O)n(-c2ccccc2)n1C` was run?
The mutagenic call was “active; positive”.

And the mutagenic call [2]?
Its mutagenic call is “active; positive”.

And the mutagenic call [3]?
The mutagenic call was “active; positive”.

What about the mutagenic call [4] of the same compound?
Its mutagenic call is “active; positive”.

And the mutagenic call [5]?
The mutagenic call was “active; positive”.

What about the mutagenic call [6] of the same compound?
Its mutagenic call is “active; positive”.

What about the mutagenic call (Test System: AMES SALMONELLA TYPHIMURIUM, Strain/Indicator: TA102, Metabolic Activation: NONE, Method: STANDARD PLATE) of the same compound?
The mutagenic call was “active; positive”.

What about the mutagenic call (Test System: AMES SALMONELLA TYPHIMURIUM, Strain/Indicator: TA102, Metabolic Activation: RAT, LIVER, S-9, AROCLOR 1254, Method: STANDARD PLATE) of the same compound?
Its mutagenic call is “active; positive”.

And the mutagenic call [7]?
The mutagenic call was “active; positive”.

What about the mutagenic call [8] of the same compound?
Its mutagenic call is “active; positive”.

Which mutagenic call [3] does the source give for `CCc1ccccc1NC(=O)c1csc([N+](=O)[O-])c1` here?
Its mutagenic call is “active; positive”.

What about the mutagenic call [5] of the same compound?
Its mutagenic call is “active; positive”.

Which results are given for `COc1cccc2c(NCCCNCCCl)c3ccccc3nc12`?
mutagenic call [3]: active; positive; mutagenic call [5]: active; positive; mutagenic call [9]: inactive; negative; mutagenic call (Test System: AMES SALMONELLA TYPHIMURIUM, Strain/Indicator: TA1536, Metabolic Activation: NONE, Method: STANDARD PLATE): active; positive; mutagenic call [10]: active; positive; mutagenic call (Test System: AMES SALMONELLA TYPHIMURIUM, Strain/Indicator: TA1538, Metabolic Activation: NONE, Method: STANDARD PLATE): active; positive

With `Cc1cc2c(c3ccc4ccccc4c13)CCC2` as the compound, how does the mutagenic call [5] read?
Its mutagenic call is “inactive; negative”.

And the mutagenic call [6]?
Its mutagenic call is “inactive; negative”.
